Target: T1, Calpain I (Homo sapiens, UniProt P07384)
T1 sequence (P07384 1-714): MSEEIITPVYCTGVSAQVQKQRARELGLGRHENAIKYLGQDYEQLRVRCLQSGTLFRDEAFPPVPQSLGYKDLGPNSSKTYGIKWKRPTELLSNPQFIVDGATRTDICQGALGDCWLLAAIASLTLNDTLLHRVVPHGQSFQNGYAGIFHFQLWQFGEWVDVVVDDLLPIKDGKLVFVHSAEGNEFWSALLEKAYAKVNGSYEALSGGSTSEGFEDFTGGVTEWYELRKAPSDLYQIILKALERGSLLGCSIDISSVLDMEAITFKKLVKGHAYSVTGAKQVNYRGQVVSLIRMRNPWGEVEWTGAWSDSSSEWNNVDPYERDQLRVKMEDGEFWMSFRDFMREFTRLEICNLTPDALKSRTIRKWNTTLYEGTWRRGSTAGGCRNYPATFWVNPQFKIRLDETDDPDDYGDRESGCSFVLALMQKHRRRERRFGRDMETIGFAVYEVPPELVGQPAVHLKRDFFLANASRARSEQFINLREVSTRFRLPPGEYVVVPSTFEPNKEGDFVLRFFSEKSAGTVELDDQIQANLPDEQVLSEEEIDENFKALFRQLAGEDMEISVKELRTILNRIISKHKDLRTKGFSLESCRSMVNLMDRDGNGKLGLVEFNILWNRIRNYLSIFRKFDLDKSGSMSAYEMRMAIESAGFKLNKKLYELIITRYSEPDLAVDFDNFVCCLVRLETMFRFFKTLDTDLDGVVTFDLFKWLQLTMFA
T1 sequence (P04632 1-268 partner): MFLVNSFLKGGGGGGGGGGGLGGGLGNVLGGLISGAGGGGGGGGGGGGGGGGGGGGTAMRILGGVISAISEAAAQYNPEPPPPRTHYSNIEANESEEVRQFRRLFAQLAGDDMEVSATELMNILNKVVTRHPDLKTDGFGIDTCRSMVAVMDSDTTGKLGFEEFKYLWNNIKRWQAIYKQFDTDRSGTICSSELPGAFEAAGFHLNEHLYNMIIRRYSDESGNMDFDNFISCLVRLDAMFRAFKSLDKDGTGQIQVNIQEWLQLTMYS
Experiment: Inhibition and rate of inactivation of cysteine protease (calpain I) activity, Succ-Leu-Tyr-MNA substrate hydrolysis
Conditions: for inhibition at 0.1 µM: read-out: % Inhib. @ 0.1 uM; for kinact/KI: read-out: kobs/I x 10^-3 M^-1s^-1
Description: To evaluate inhibitory activity, stock solutions (40 times concentrated) of each compound to be tested were prepared in 100% anhydrous DMSO and 5 µl of each inhibitor preparation were aliquoted into each of three wells of a 96 well plate. […] To start the reaction, 20 µl of 50 mM CaCl2 in assay buffer was added to all wells of the plate, excepting three, which were used as background signal baseline controls. Substrate hydrolysis was monitored every 5 minutes for a total of 30 minutes. Substrate hydrolysis in the absence of inhibitor was linear for up to 15 minutes.
Inhibition of calpain I activity was calculated as the percent decrease in the rate of substrate hydrolysis in the presence of inhibitor (vi) relative to the rate in its absence (vo). Comparison between vo and vi was made within the linear range for substrate hydrolysis. […] Apparent second order rate constants were determined from analysis of reaction progress curves under pseudo-first order conditions. Each determination represents the mean of three or more independent single cuvette analyses continually monitored via a Perkin-Elmer LS50B spectrofluorimeter.

| Structure (SMILES) | inhibition at 0.1 µM [%] | kinact/KI [M⁻¹ s⁻¹] | kobs/I x 10^-3 M^-1s^-1 |
| --- | --- | --- | --- |
| CC(C)C[C@H](NC(=O)OC(C)(C)C)C(=O)N[C@@H](Cc1ccccc1)C(=O)COP(=O)(O)O [Example 41, Dihydrogen (3S)-[3-[(N-t-Butoxycarbonyl-L-leucyl)amino]-2-oxo-4-phenylbutyl] phosphate] | 7 | < 20000 | – |
| CC(C)CC(NC(=O)C12OC3COC(C)(C)OC3C1OC(C)(C)O2)C(=O)NC(Cc1ccccc1)C(=O)COP(=O)(OCc1ccccc1)OCc1ccccc1 [Example 37, Dibenzyl (3S)-[3-[(N-diisopropylidine-2-keto-L-gulonyl-L-leucyl)amino)-2-oxo-4-phenylbutyl] phosphate] | – | – | 113 x 10^-3 M^-1s^-1 |
| CC(C)C[C@H](NC(=O)OCc1ccccc1)C(=O)N[C@@H](Cc1ccccc1)C(=O)COP(C)(C)=O [Example 52, (3S)-[3-[(N-Benzyloxycarbonyl-L-leucyl)amino]-2-oxo-4-phenylbutyl] dimethylphosphinate] | – | 6000 | – |
| CC(C)C[C@H](NC(=O)OCc1ccccc1)C(=O)N[C@@H](Cc1ccccc1)C(=O)COP1(=O)OCC(OCc2ccccc2)CO1 (stereo partly shown) [Example 47] | 47 | – | – |
| Cc1ccccc1COP(=O)(OCC(=O)[C@H](Cc1ccccc1)NC(=O)[C@H](CC(C)C)NC(=O)OCc1ccccc1)OCc1ccccc1C [Example 39, Bis(2-methylbenzyl) (3S)-[3-[(N-Benzyloxycarbonyl-L-leucyl)amino]-2-oxo-4-phenylbutyl] phosphate] | – | 365000 | – |
| COc1ccccc1P(=O)(OCC(=O)[C@H](Cc1ccccc1)NC(=O)[C@H](CC(C)C)NC(=O)OCc1ccccc1)c1ccccc1 (stereo partly drawn) [Example 58, (3S)-[3-[(N-Benzyloxycarbonyl-L-leucyl)amino]-2-oxo-4-phenylbutyl] (2-methoxyphenyl)(phenyl)phosphinate] | – | 150000 | – |
